Results from US6503906B1 (priority 2002, dated 2003).
Values after ≈ are worked out from the molar mass of the structure shown.

Columns and labels:
anthrax [1] = test system: anthrax; design: species or system human
anthrax [2] = assay: microbe, parasite or virus in culture; format: cell-based; conditions: Bacillus anthracis, read-out: MIC against anthrax, mid point adopted in the models
inhalational anthrax = conditions: human, in vivo; cited from earlier work
[3] = test system: Bacillus anthracis spores; conditions: rhesus monkey, in vivo; cited from earlier work
[4] = test system: most other infectious organisms; conditions: in vivo; cited from earlier work
[5] = test system: gram positive and negative bacteria; conditions: human, in vivo; cited from earlier work

O=C(O)c1cn(C2CC2)c2cc(N3CCNCC3)c(F)cc2c1=O [ciprofloxacin]
drop of mortality rate (anthrax [1]): 2 folds | reduction of mortality rate with optimized regimens compared to currently recommended regimens (anthrax [1]): up to 2 folds | MIC (anthrax [2]): 0.07 mg/L (≈ 0.211 µM) | overall survival of the US patients (inhalational anthrax): 55% | survival rate of anthrax patients treated with the drug (inhalational anthrax): 50˜60% | protection from the disease [3]: adequately protected from the disease | survival rate of ciprofloxacin-treated animals [3]: 90% | effectiveness against most other infectious organisms [4]: over 80% | MIC range of the bacteria in the literature study [5]: 0.008 to 0.4 mg/L | time to complete bacteria eradication [5]: more than 10 days
